{"source": "patent EP0294307B1", "about": "“3-Arylcarbamoyl-5-aminomethyl-oxazolidines, and their salts with pharmaceutically acceptable acids” (CORTIAL S.A., priority 1987, dated 1988)", "key": {"souris": {"tested_on": "souris", "experiment": "Toxicity: mortality in mice after oral or intraperitoneal administration", "type": "in vivo"}, "candida albicans": {"tested_on": "candida albicans", "experiment": "In vitro antifungal activity by standard dilution techniques", "type": "cell-based", "conditions": "concentration de 20 microgramme par ml", "description": "In vitro une activité antifongique a été mise en évidence vis à vis de candida albicans pour le COR3296. L'activité observée par des techniques de dilution standard est significative à la concentration de 20 microgramme par ml."}, "[1]": {"tested_on": "rat génétiquement hypertendu", "experiment": "Arterial blood pressure in genetically hypertensive rats after oral administration", "type": "in vivo", "conditions": "60mg/kg voie orale", "protocol": "Administré chez le rat génétiquement hypertendu à la dose de 60mg/kg par voie orale le COR3267 entraine une diminution de la pression artérielle de 8, 12 et 14 %, ces variations étant respectivement mesurées 2, 4 et 6 heures après l'administration."}, "[2]": {"conditions": "voie intrapéritonéale, 200mg/kg"}}, "data": [{"compound": "N=C1OC(CN2CCN(c3ccccc3)CC2)CN1C(=O)Nc1ccccc1", "note": "(stereo not drawn) [COR3262, Phényl carbamoyl-3, imino-2, (phényl-4 pipérazinylméthyl)-5 oxazolidine]", "values": [{"measurement": "mortalité", "setting": "souris; [2]", "value": "aucune mortalité"}, {"measurement": "mortalité", "setting": "souris; voie orale, 300mg/kg", "value": "aucune mortalité"}]}, {"compound": "N=C1OC(CN2CCN(c3ccccn3)CC2)CN1C(=O)Nc1ccccc1", "note": "(stereo not drawn) [COR3263, Phényl carbamoyl-3 imino-2 ((pyridyl-2)-4 pipérazinylméthyl)-5 oxazolidine]", "values": [{"measurement": "mortalité", "setting": "souris; [2]", "value": "aucune mortalité"}, {"measurement": "mortalité", "setting": "souris; voie orale, 300mg/kg", "value": "aucune mortalité"}]}, {"compound": "N=C1OC(CN2CCN(c3cccc(C(F)(F)F)c3)CC2)CN1C(=O)Nc1ccccc1", "note": "(stereo not drawn) [COR3266, Phényl carbamoyl-3 imino-2 ((trifluorométhyl-3 phényl)-4 pipérazinylméthyl)-5 oxazolidine]", "values": [{"measurement": "mortalité", "setting": "souris; [2]", "value": "aucune mortalité"}, {"measurement": "mortalité", "setting": "souris; voie orale, 300mg/kg", "value": "aucune mortalité"}]}, {"compound": "O=C(Nc1ccccc1)N1CC(CN2CCN(c3cccc(C(F)(F)F)c3)CC2)OC1=O", "note": "(stereo not drawn) [COR3276, Phényl carbamoyl-3 ((trifluorométhyl-3 phényl)-4 pipérazinylméthyl)-5 oxazolidinone-2]", "values": [{"measurement": "mortalité", "setting": "souris; [2]", "value": "aucune mortalité"}, {"measurement": "mortalité", "setting": "souris; voie orale, 300mg/kg", "value": "aucune mortalité"}]}, {"compound": "N=C1OC(CN2CCN(c3ccc(F)cc3)CC2)CN1C(=O)Nc1ccccc1", "note": "(stereo not drawn) [COR3278, Phényl carbamoyl-3 imino-2 ((fluoro-4 phényl)-4 pipérazinylméthyl)-5 oxazolidine]", "values": [{"measurement": "mortalité", "setting": "souris; [2]", "value": "aucune mortalité"}, {"measurement": "mortalité", "setting": "souris; voie orale, 300mg/kg", "value": "aucune mortalité"}]}, {"compound": "N=C1OC(CN2CCN(c3cccc(Cl)c3)CC2)CN1C(=O)Nc1ccccc1", "note": "(stereo not drawn) [COR3279, Phényl carbamoyl-3 imino-2 ((chloto-3 phényl)-4 pipérazinylméthyl)-5 oxazolidine]", "values": [{"measurement": "mortalité", "setting": "souris; [2]", "value": "aucune mortalité"}, {"measurement": "mortalité", "setting": "souris; voie orale, 300mg/kg", "value": "aucune mortalité"}]}, {"compound": "N=C1OC(CN2CCN(c3ccccc3)CC2)CN1C(=S)Nc1ccccc1", "note": "(stereo not drawn) [COR3296, Phényl thiocarbamoyl-3 imino-2 (phényl-4 pipérazinylméthyl)-5 oxazolidine]", "values": [{"measurement": "mortalité", "setting": "souris; [2]", "value": "aucune mortalité"}, {"measurement": "mortalité", "setting": "souris; voie orale, 300mg/kg", "value": "aucune mortalité"}, {"measurement": "activité antifongique", "setting": "candida albicans", "value": "significative"}]}, {"compound": "Chlorhydrate de la phényl carbamoyl-3 ((chloro-3 phényl)-4 pipérazinylméthyl)-5 oxazolidinone-2 [COR3277]", "values": [{"measurement": "mortalité", "setting": "souris; [2]", "value": "aucune mortalité"}, {"measurement": "mortalité", "setting": "souris; voie orale, 300mg/kg", "value": "aucune mortalité"}]}, {"compound": "Chlorhydrate de la phényl carbamoyl-3 ((fluoro-4 phényl)-4 pipérazinylméthyl)-5 oxazolidinone-2 [COR3265]", "values": [{"measurement": "mortalité", "setting": "souris; [2]", "value": "aucune mortalité"}, {"measurement": "mortalité", "setting": "souris; voie orale, 300mg/kg", "value": "aucune mortalité"}]}, {"compound": "Chlorhydrate de la phényl carbamoyl-3, (phényl-4 pipérazinylméthyl)-5 oxazolidinone-2 [COR3267]", "values": [{"measurement": "mortalité", "setting": "souris; [2]", "value": "aucune mortalité"}, {"measurement": "mortalité", "setting": "souris; voie orale, 300mg/kg", "value": "aucune mortalité"}, {"measurement": "diminution de la pression artérielle", "setting": "[1]; 2 heures après l'administration", "value": 8, "unit": "%"}, {"measurement": "diminution de la pression artérielle", "setting": "[1]; 4 heures après l'administration", "value": 12, "unit": "%"}, {"measurement": "diminution de la pression artérielle", "setting": "[1]; 6 heures après l'administration", "value": 14, "unit": "%"}]}]}
